{"source": "patent US7842690B2", "about": "“Cyclic hydroxylamine as psychoactive compounds” (BTG International Limited, priority 2003, dated 2010)", "type_in_all_cases": "in vivo", "key": {"BKW male albino mice": {"system": "BKW male albino mice", "experiment": "Black and white box test (Example 10)", "conditions": "0.1 mg/kg IP 40 min before test, 5-min period"}, "rats [1]": {"system": "rats", "experiment": "Elevated plus maze (X-maze) in rats", "conditions": "0.125 mg/kg IP 40 min before test, 5-min period", "source_text": "The X-maze is constructed from Perspex® and comprises four arms (2 open, 2 closed), each 50 cm long by 9.5 wide and 40 high (closed, arms only) connected by a centre square (9.5×9.5). The open arm has a small lip (3 mm) to assist in the retention of the rat on the arm. The apparatus was housed in a room under subdued lighting conditions.\nThis model is based on the observation of spontaneous activity of rodents placed in an aversive environment produced by height and often spaces. […] Anxiolytic drugs increase the exploratory activity and the number of entries into the open arms. Rats were allowed at least 1 hour to acclimatise to the environment before testing commenced. Drug treatments were given IP in a pseudo-random, blind design, 40 minutes before behavioural testing, as appropriate. Rats were placed onto the centre square of the X-maze facing a specified open arm, and its behaviour was recorded by remote video over a 5 minute experimental period. The behavioural parameters were subsequently assessed by technicians reviewing the videotape and included: entries into each arm type, time spent on each arm type, rearing, stretch attend postures and head dips."}, "rats [2]": {"system": "rats", "experiment": "Escape deficit test (learned helplessness), antidepressant activity", "conditions": "rats treated IP for 15 days, unavoidable stress 16 h and escape test 24 h after last dosing; out of 30 trials; dose not given", "method": "The “Escape deficit” test that derives from the classic paradigm of “learned helplessness” was used, as described by Meloni et al. in Pharmacol. Biochem. Behav. 46, 423-6 (1993) and Gambarana et al. in Behav. Pharmacol. 6, 66-73 (1995) and Neuropsychopharmacol. 21, 247-57 (1999). Exposure to an unavoidable stress induces […], which, after 24 hours, makes the rats unable to escape from a nociceptive stimulus. Rats exposed to unavoidable stress make 0-5 escapes out of 30 trials, while naïve rats realise 26-30 escapes. Classical anti-depressives prevent the occurrence of the escape deficit after chronic treatment (15 days).\nRats were treated intra-peritoneally (IP) for 15 days, and then submitted to the unavoidable stress (16 hours after the last dosing) prior to being subjected to the escape test (24 hours after the last dosing)."}, "[3]": {"system": "Male rats of the Wistar strain", "experiment": "Despair test (forced swim)", "conditions": "5-min test, mean ± S.E.M."}, "[4]": {"system": "Male rats of the Wistar strain", "experiment": "Reserpine-induced changes in open field behaviour", "conditions": "reserpine 0.1 mg/kg SC daily for 14 days, 5-min test, mean ± S.E.M.", "method": "Rats treated with the compound of Example 1 were compared to either rats treated with the classical antidepressant, clomipramine or controls in the despair test (forced swim). The same groups were also tested for the reserpine-induced changes in open field behaviour.\nMale rats of the Wistar strain (purchased from Charles River, Italy) weighing 220-240 g were used throughout all experiments. For at least 1 week prior to the experiment, the rats were housed four to a cage at a constant temperature of 21° C., and under a 12-h light/dark cycle (lights on between 08:00 and 20:00), with food and water available ad libitum.\nAn acute IP injection of clomipramine hydrochloride (50 mg/kg) or of the compound of Example 1 (0.2 and 0.5 mg/kg) or physiological saline was made in animals subjected to the reserpine-induced changes in the open field test (the injection was made together with the last reserpine administration, e.g. 1 h prior to the open field test).\nAll animals were gently manipulated by experienced facilities' keepers avoiding any environmental or physical stress. Rats subjected to drugs or physiological saline administration received an injection of a 1-mL standard volume of solution with a 23-gauge stainless steel needle of 31 mm length (for […]) or 21 mm length (for SC injections). The animals were randomly assigned to any treatment group and were used only once in the behavioural experiments.\nReserpine-induced changes in open field behaviour was studied according to the method described in Naunyn-Schmiedeberg's Arch. Pharmacol. 293: 109-114 (Vetulani et al., 1976). Reserpine (Sigma, USA) was dissolved in physiological saline and injected daily for 14 days at the dose of 0.1 mg/kg subcutaneously (SC). A period of 1 hour after the last injection of reserpine, animals were subjected to the open field test. This consisted of the measure of ambulation and rearing of the rat in a circular area divided into 17 equal sections and lighted by a centrally suspended lamp. The areas explored by the rat at least with anterior paws was recorded in 5 min test. The episodes of rearing towards the centre or the walls were also recorded in 5 min test.\nAll data were analysed using univariate random design analysis of variance (one-way ANOVA) and the post hoc Dunnett's test for multiple comparisons. A P-value of 0.05 or less was considered as indicative of a significant difference."}, "[5]": {"conditions": "acute 0.2 mg/kg IP 1 h prior to open field test"}, "[6]": {"conditions": "acute 0.5 mg/kg IP 1 h prior to open field test"}, "[7]": {"conditions": "acute 0.5 mg/kg IP 1 h prior to open field test, listed as Example 1"}}, "data": [{"compound": "O=C1CCCC=C1C1COCCN1O", "note": "(stereo not shown) [Ex. 1 (Abio 09/01), 2-(4-hydroxy-3-morpholinyl)-2-cyclohexenone]", "values": [{"measurement": "Atot = Total exploratory activity", "setting": "BKW male albino mice", "value": "+10.4"}, {"measurement": "CB/TB = crossings in the white compartment/time in white", "setting": "BKW male albino mice", "value": "−0.05"}, {"measurement": "CN/TN = crossings in the black compartment/time in black", "setting": "BKW male albino mice", "value": 0.08}, {"measurement": "Ctot = total number of crossings", "setting": "BKW male albino mice", "value": "+7.5"}, {"measurement": "FI = Initial potency", "setting": "BKW male albino mice", "value": "+11.5"}, {"measurement": "PT = Total passages through the partition", "setting": "BKW male albino mice", "value": "+0.9"}, {"measurement": "RB/TB = rearings in the white compartment/time in white", "setting": "BKW male albino mice", "value": "+0.02"}, {"measurement": "RN/TN = rearings in the black compartment/time in black", "setting": "BKW male albino mice", "value": "+0.06"}, {"measurement": "Rtot = Total number of rearings", "setting": "BKW male albino mice", "value": "+5"}, {"measurement": "TB = time in white section", "setting": "BKW male albino mice; signed value", "value": "+53.4"}, {"measurement": "% time spent in open arms", "setting": "rats [1]", "value": "39 ± 10", "unit": "%"}, {"measurement": "No. of entries in open arms", "setting": "rats [1]", "value": "5.2 ± 1.4"}, {"measurement": "No. of escapes", "setting": "rats [2]", "value": "23.3 ± 1.3"}, {"measurement": "Duration of Immobility", "setting": "[3]; 0.2 mg/kg IP", "value": "167.00 ± 11.11"}, {"measurement": "Duration of Immobility", "setting": "[3]; 0.5 mg/kg IP, 0.5 mg/kg", "value": "109.83 ± 9.12"}, {"measurement": "Duration of Immobility", "setting": "[3]; 0.5 mg/kg IP, listed as Example 1, 0.5 mg/kg", "value": "significant decrease of immobility time"}, {"measurement": "No. of Floor Units (ambulation)", "setting": "[4]; [5]", "value": "128.1 ± 11.9"}, {"measurement": "Rearing Episodes", "setting": "[4]; [5]", "value": "5.9 ± 0.3"}, {"measurement": "No. of Floor Units (ambulation)", "setting": "[4]; [6]", "value": "92.2 ± 11.1"}, {"measurement": "Rearing Episodes", "setting": "[4]; [6]", "value": "2.2 ± 0.5"}, {"measurement": "No. of Floor Units (ambulation)", "setting": "[4]; [7]", "value": "decreased ambulation"}, {"measurement": "Rearing Episodes", "setting": "[4]; [7]", "value": "decreased ambulation (number of floor units entered) and rearing"}]}]}
